The values that follow come from patent publication US20100098657A1, “Method of Treating Cancer with Immunomodulatory Compounds and IgG” (priority 2007, published 2010).

The subject of experiment [1] is Rituximab-coated CD20+ Jeko-1 (mantle cell lymphoma) cells. The experiment is described as follows: ADCC assay: NK cell-mediated killing of Rituximab-coated CD20+ Jeko-1 cells. Type of experiment: cell-based, human. The protocol:
Preparation of NK cells: Purified NK cells (5×10^4) were seeded in 96-well U-bottom plates in 100 μL of 10% RPMI-1640 medium, supplemented with human AB+ serum. […] The cells were then incubated at 37° C. overnight.
Preparation of Rituximab-coated target cancer cells: Various NHL cell lines (Namalwa, Raji, Farage, and Jeko-1) were treated with 20 μg/mL Rituximab (Rituximab, Genentech, Inc.) for 30 minutes at 37° C. Excess unbound Rituximab was then removed by a washing step.
[…] The cells were then co-incubated for 4 hours at 37° C.
Cytotoxicity analysis: NK cell cytotoxicity against the tumor cell lines was analyzed using a standard lactate dehydrogenase release assay (CytoTox 96 Non-radioactive Cytotoxicity Assay, Promega) to measure ADCC in a 50 μL aliquot of supernatant. The experimental release was corrected by subtraction of the spontaneous release of effector cells at the corresponding dilution. Spontaneous release from target cells alone was <15% of the maximum release as determined with target cells lysed in 1% Triton X-100.
Determination of effector: target ratio: Specific lysis for each effector-to-target (E:T) cell ratio was calculated using the following formula: % specific lysis=([experimental release−spontaneous release]/[maximum release−spontaneous release])×100.

For experiment [2], the system named is NK cells. Description: NK cell chemokine/cytokine production in response to Trastuzumab-coated SK-BR3 cells. Type of experiment: cell-based, human. The protocol: (§1) As shown herein, immunomodulatory compounds, either alone or in combination with other agents, can alter the expression of several growth factors.
The effects of immunomodulatory compounds lenalidomide and pomalidomide on NK cell chemokine/cytokine production in response to Trastuzumab-coated SK-BR3 cells were assessed using procedures substantially similar to those described in Section 6.6., above.

For experiment [3], the system named is pERK. Description: Immunoblot analysis of pERK. It counts as cell-based. The settings on record: IL-12 plus IgG. The protocol:
FIG. 7 is a panel of bar graphs showing the quantitation of an immunoblot comparison of cells treated with either IL-12 alone, IgG alone, IL-12 plus IgG, or IL-12 plus IgG plus lenalidomide (at 0.1 μM to 10 μM).
Additionally, administration of the immunomodulatory compound lenalidomide was capable of increasing both pPLC-γ2 and pERK levels (FIGS. 7B and 7C). Increase in the levels of these proteins were also observed in connection with pomalidomide (FIGS. 13A and 13B). PLC-γ2 is involved in the maturation and activation of NK cells and triggers the release of lytic granules (Regunathan et al., 2006, Jour. Immunol 175:749-754, which is incorporated by reference herein in its entirety). PLC-γ2 also induces IFN-γ production and is necessary for cytotoxicity and chemokine production.

Experiment [4] deals with NK cells. Description: NK cell expression of growth factors/chemokines (IL-2, IgG, lenalidomide). It counts as cell-based, human. The settings on record: lenalidomide 0.1, 1 or 10 μM with IL-2, IgG.
Source text: as §1

The mark [5] stands for this setting: presence of immobilized IgG and IL-2.

In the case of `Nc1cccc2c1CN(C1CCC(=O)NC1=O)C2=O` (centres unmarked) [lenalidomide, 1-oxo-2-(2,6-dioxopiperidin-3-yl)-4-aminoisoindoline], the NK cell-mediated killing in experiment [1] (lenalidomide 1 μM + IL-2, Rituximab-coated cells, E:T 50:1) turned out to be 95%. For the same compound, in experiment [1] (lenalidomide and Rituximab combined, background killing=40%), the “enhancement of NK cell-mediated killing above background” value came out at 55%. Besides, the “increase in tumor cell killing above background” value in experiment [1] (single agent, background killing=40%) is reported as 5%. For the same compound, the “increase in NK cell-mediated killing activity” value in experiment [1] (vs Rituximab-only treatment) is 1.4 fold. Further, the “increase in NK cell-mediated killing activity” value in experiment [1] (vs uncoated (control) cells) was above 2 fold. For the same compound, the “production of any chemokines/cytokines” value in experiment [2] (compound alone) is listed as “did not induce”. In addition, in experiment [2] (setting [5]), the “production of GM-CSF” value was “dose-dependently enhanced”, the “production of IL-8” value is on record as “dose-dependently enhanced”, the “production of IP-10” value is “dose-dependently enhanced” and the “production of MCP-1” value was “dose-dependently enhanced”. Further, in experiment [2] (setting [5]), the “production of MIP-1α” value is reported as “dose-dependently enhanced”, the “production of MIP-1β” value was “not” and the “production of RANTES” value is “dose-dependently enhanced”. Moreover, in experiment [3], the pERK levels entry is on record as “increasing”. Besides, in experiment [4], the “NK cell expression of GM-CSF” value was “increased”, the “NK cell expression of IL-6” value is listed as “decreased”, the “NK cell expression of IL-8” value is given as “increased” and the “NK cell expression of IP-10” value is “increased”. Also, in experiment [4], the “NK cell expression of RANTES” value is “increased” and the “NK cell expression of monocyte chemotactic protein-1 (MCP-1)” value is “increased”.
